For experiment [1], the system named is T1, NMDA receptor (NMDAR).
T1 construct: gene Grin1; native receptor in dissociated cultures of rat hippocampal neurons
In words: whole-cell patch clamp of NMDA-evoked currents, concentration-response at -70 mV; also NMDAR EPSCs. Type of experiment: cell-based, Rattus norvegicus. On the technique in general: In patch-clamp work, channel activity is measured electrically.

Experiment [2] relates to T1, NMDA receptor (NMDAR). In words: whole-cell patch clamp of NMDA-evoked currents, concentration-response at -70 mV. Type of experiment: cell-based, Rattus norvegicus.

From PMC5159840, “A Clickable Analogue of Ketamine Retains NMDA Receptor Activity, Psychoactivity, and Accumulates in Neurons” (Scientific Reports, 2016) come the findings set out here.

As to `C#CCCCNC1(c2ccccc2Cl)CCCCC1=O` (racemic) [compound 1, A-NK], the IC50 in experiment [1] was 1800 nM.

`NC1(c2ccccc2Cl)CCCCC1=O` (racemic) [norketamine] registered an IC50 in experiment [1] of 2000 nM.

As for `CNC1(c2ccccc2Cl)CCCCC1=O` (racemic) [ketamine], the IC50 in experiment [2] came to 400 nM.

Broadly, the IC50 is the concentration that gives 50% inhibition.
